Measured values as given in US20070111265A1, “Ligands for mineralocorticoid receptor (MR) and methods for screening for or designing MR ligands” (Van Andel Research Institute, priority 2005, published 2007).
Residue numbers refer to the chain shown, from its start. Where “and” joins values, the source holds several entries; their conditions need not be identical. Identical values can stand only once. Like-named read-outs stand apart in the source and are kept apart here.

Columns and labels:
[1] = biological target: T1, wild type MR (full-length) (Homo sapiens, UniProt P08235); assay: MMTV luciferase reporter assay in Cos-7 cells; format: cell-based
T1 construct: receptor expression vector (pRS vector) encoding full-length GR and MR respectively (ATCC); host or cells: Cos-7
T1 sequence (P08235 1-984): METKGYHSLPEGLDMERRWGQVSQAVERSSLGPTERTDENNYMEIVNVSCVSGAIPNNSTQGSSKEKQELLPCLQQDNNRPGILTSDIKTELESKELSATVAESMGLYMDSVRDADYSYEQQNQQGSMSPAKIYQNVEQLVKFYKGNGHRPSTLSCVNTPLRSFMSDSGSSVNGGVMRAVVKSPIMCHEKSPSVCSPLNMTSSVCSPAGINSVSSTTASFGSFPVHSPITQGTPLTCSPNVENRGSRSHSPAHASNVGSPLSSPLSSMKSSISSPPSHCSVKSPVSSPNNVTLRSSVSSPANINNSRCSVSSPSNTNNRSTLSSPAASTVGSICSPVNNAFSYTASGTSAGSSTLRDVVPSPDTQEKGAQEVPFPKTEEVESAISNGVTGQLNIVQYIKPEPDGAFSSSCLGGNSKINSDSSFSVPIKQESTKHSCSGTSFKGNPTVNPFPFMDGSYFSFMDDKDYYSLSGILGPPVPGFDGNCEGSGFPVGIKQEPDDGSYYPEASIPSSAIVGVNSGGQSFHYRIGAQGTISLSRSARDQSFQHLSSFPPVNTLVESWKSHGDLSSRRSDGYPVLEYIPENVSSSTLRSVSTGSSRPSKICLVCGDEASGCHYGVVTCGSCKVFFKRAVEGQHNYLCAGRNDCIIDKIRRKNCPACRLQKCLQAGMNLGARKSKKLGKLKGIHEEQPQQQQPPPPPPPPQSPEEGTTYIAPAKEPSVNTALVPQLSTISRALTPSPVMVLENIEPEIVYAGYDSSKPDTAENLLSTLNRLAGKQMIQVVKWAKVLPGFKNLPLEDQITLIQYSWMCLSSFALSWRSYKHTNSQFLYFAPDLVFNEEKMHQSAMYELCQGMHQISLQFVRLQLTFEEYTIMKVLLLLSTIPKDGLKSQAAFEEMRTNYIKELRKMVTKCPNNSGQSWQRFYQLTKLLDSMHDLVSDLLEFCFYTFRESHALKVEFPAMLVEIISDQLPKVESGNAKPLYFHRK
Experimental: (§1) Cos-7 cells were maintained in DMEM containing 10% fetal bovine serum (FBS) and were transiently transfected using Lipofectamine 2000 (Invitrogen). […] Cells were transfected in Opti-MEM with 400 ng of MMTV-Luc reporter plasmid and 400 ng of receptor expression vector (pRS vector) encoding full-length GR and MR respectively (ATCC). […] Luciferase data were normalized to Renilla activity as an internal control.
(§2) To validate the role of the key MR pocket residues in hormone recognition, the inventors mutated S843 and L848 to the corresponding GR residues (S843P and L848Q) within the context of the full length wild type receptor. […] We also performed reverse mutations in the full length GR receptor (P637S and Q642L) and tested them in the same MMTV reporter.

MR L848Q = biological target: T2, MR L848Q (Homo sapiens, UniProt P08235, L848Q); assay: MMTV luciferase reporter assay in Cos-7 cells; format: cell-based
T2 construct: (S843P and L848Q) within the context of the full length wild type receptor; expressed in transfected cells; host or cells: Cos-7
T2 sequence (P08235 1-984 L848Q): T1 sequence (P08235 1-984) with L848Q
Experimental: as §1, §2

[2] = Cos-7, MMTV-Luc, read-out: EC50, activation of wild type MR
[3] = summary of FIG. 5 dose-response, read-out: affinity to MR (shown in FIG. 5)

| potency of corticosterone relative to cortisol ([1]; wild type MR) | EC50 (MR L848Q; Cos-7, MMTV-Luc, read-out: EC50, activation of MR L848Q) | decrease of potency by L848Q mutation (MR L848Q; versus wild type MR) | SMILES | EC50 [1, 2] | EC50 [1, 3] | activation of MR L848Q (MR L848Q; versus wild type MR) |
| --- | --- | --- | --- | --- | --- | --- |
| roughly 10 fold | ~1 nM | at least 10 fold | C[C@]12C[C@H](O)[C@H]3[C@@H](CCC4=CC(=O)CC[C@@]43C)[C@@H]1CC[C@@H]2C(=O)CO [corticosterone] | 0.08 nM and < 0.1 nM | 0.1 to 1 nM |  |
|  |  |  | C[C@]12CCC(=O)C=C1CC[C@@H]1[C@@H]2[C@@H](O)C[C@@]2(C)[C@H]1CC[C@]2(O)C(=O)CO [cortisol] | 0.6 nM | 0.1 to 1 nM | not affected |
